Experimental data as given in US20060160865A1, “Pyridinyl carbamates” (Novo Nordisk A/S, priority 2003, published 2006).

Molecular target: T1, Hormone-sensitive lipase (HSL) (Homo sapiens, UniProt Q05469)
T1 construct: made in house
T1 sequence (Q05469 1-775 isoform Q05469-2): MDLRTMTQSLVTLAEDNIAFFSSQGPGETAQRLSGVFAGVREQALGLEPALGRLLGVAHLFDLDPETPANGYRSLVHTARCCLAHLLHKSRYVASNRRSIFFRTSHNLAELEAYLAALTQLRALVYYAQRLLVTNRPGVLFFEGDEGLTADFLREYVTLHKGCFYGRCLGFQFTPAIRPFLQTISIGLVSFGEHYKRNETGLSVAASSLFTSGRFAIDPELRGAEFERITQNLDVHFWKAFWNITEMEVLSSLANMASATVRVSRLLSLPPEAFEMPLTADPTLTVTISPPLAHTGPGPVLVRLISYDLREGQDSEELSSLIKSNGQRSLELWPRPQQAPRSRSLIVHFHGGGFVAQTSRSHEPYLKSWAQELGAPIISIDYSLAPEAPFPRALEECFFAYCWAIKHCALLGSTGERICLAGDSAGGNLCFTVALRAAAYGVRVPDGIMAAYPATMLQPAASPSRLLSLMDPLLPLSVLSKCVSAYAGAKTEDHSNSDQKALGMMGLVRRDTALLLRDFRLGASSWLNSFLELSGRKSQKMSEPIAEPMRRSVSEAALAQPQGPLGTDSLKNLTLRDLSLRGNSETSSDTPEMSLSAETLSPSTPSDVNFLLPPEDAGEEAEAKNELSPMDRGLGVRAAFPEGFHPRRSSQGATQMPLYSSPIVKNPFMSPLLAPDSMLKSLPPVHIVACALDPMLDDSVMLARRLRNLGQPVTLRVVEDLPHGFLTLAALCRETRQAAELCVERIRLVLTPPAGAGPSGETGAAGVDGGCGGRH
Assay: Assay 3190.1: percent inhibition of hormone sensitive lipase by compound at 10 μM (fluorochrome-labeled triacylglyceride substrate)
Assay type: biochemical
Conditions: 10 μM sample concentration; % activity relative to non-inhibited sample (no compound); 30 min pre-incubation at 25° C., 120 min at 37° C.; read-out: Test 3190.1 HSL_FL % ACTIVITY
Excerpt: Materials. The Hormone-sensitive lipase was provided by Dr. Cecilia Holm, from Lund University Sweden or produced and purified by Novo Nordisk (NN) using the reagents and protocols used by Dr. Holm. The substrates used are: ^3H-labeled triolein (TO) from Amersham, Buckinghamshire, U.K. cat No. TRA191; 5-20 Ci/mmol dissolved in toluene, triolein (Sigma, Cat. No. T-1740), fluorochrome-labeled triacylglyceride (cis-octadec-9-enoic acid 2-[12-(7-nitrobenzo[1,2,5]oxadiazol-4-ylamino)dodecanoyloxy]-1-cis-octadec-9-enoyloxymethyl-ethyl ester) prepared by Novo Nordisk (NN) by conventional methods, and 1,3-(di[^3H]-stearin), 2-(PEG-Biotin)glycerol prepared in collaboration with Amersham Pharmacia Biotech, UK and described in WO 01/073442. Phosphatidyl choline (PC) and phosphatidyl inositol (PI) are from Sigma (St Luis Mo. cat. Nos. P-3556 and P-5954 respectively). All other reagents are of commercial grade and obtained from various commercial sources.
3190.1: Assay for determination of percent inhibition of hormone sensitive lipase by compound at 10 μM sample concentration.
A lipid emulsion with fluorochrome-labeled triacylglyceride and phospholipid is used as substrate with a standard concentration of highly purified HSL (12 μg/mL initial concentration corresponding to 600 ng/mL final concentration). BSA is added as product acceptor. The transfer of the fluorochrome from the lipid phase to the water (BSA) phase changes the fluorescent properties of the fluorochrome. The changes can be monitored on a fluorimeter with an excitation wavelength of 450 nm and an emission wavelength of 545 nm.
Compound and HSL (20 μL compound, 10 μL enzyme and 70 μL PED-BSA buffer) is pre-incubated for 30 min at 25° C. before addition of substrate (100 μL). Amount of formed product is measured after 120 min incubation at 37° C.
Results are given as percent activity relative to a non-inhibited sample (no compound). 3190.2: Assay for determination of IC50 value for the inhibition of hormone sensitive lipase by compound. Standard concentrations of compound are 100 μM and 5-fold dilutions (initial concentration corresponding to 10 μM final concentration and 5-fold).

SMILES	activity at 10 µM [%]
CN(C(=O)Oc1ccc(CCN2C(=O)CC(C)(C)CC2=O)cn1)c1ccccc1 [Example 1, Methyl-phenyl-carbamic acid 5-[2-(4,4-dimethyl-2,6-dioxo-piperidin-1-yl)-ethyl]-pyridin-2-yl ester]	0
CN(C(=O)Oc1ccc(NCC(=O)OC(C)(C)C)cn1)c1ccccc1 [Example 2, [6-(Methyl-phenyl-carbamoyloxy)-pyridin-3-ylamino]-acetic acid tert-butyl ester]	1
CN(C(=O)Oc1ccc(N2C(=O)CNC2=S)cn1)c1ccccc1 [Example 5, Methyl-phenyl-carbamic acid 5-(5-oxo-2-thioxo-imidazolidin-1-yl)-pyridin-2-yl ester]	9
CCC1NC(=S)N(c2ccc(OC(=O)N(C)c3ccccc3)nc2)C1=O (stereo not drawn) [Example 8, Methyl-phenyl-carbamic acid 5-(4-ethyl-5-oxo-2-thioxo-imidazolidin-1-yl)-pyridin-2-yl ester]	3
CN(C(=O)Oc1ccc(NC(=S)NCC(C)(C)C)cn1)c1ccccc1 [Example 12, Methyl-phenyl-carbamic acid 5-[3-(2,2-dimethyl-propyl)-thioureido]-pyridin-2-yl ester]	2
CCCCNC(=S)Nc1ccc(OC(=O)N(C)c2ccccc2)nc1 [Example 16, Methyl-phenyl-carbamic acid 5-(3-butyl-thioureido)-pyridin-2-yl ester]	1
COc1cccc(C(=O)Nc2ccc(OC(=O)N(C)c3ccccc3)nc2)c1 [Example 21, Methyl-phenyl-carbamic acid 5-(3-methoxy-benzoylamino)-pyridin-2-yl ester]	1
CN(C(=O)Oc1ccc(NC(=O)c2cccc(C(F)(F)F)c2F)cn1)c1ccccc1 [Example 28, Methyl-phenyl-carbamic acid 5-(2-fluoro-3-trifluoromethyl-benzoylamino)-pyridin-2-yl ester]	1
CN(C)c1cccc(C(=O)Nc2ccc(OC(=O)N(C)c3ccccc3)nc2)c1 [Example 31, Methyl-phenyl-carbamic acid 5-(3-dimethylamino-benzoylamino)-pyridin-2-yl ester]	3
COc1ccccc1N(C)C(=O)Oc1ccc(N2C(=O)CC(C)(C)CC2=O)cn1 [Example 32, (2-Methoxy-phenyl)-methyl-carbamic acid 4,4-dimethyl-2,6-dioxo-3,4,5,6-tetrahydro-2H-[1,3′]bipyridinyl-6′-yl ester]	6
CN(C(=O)Oc1ccc(NC(=O)NC(C)(C)C)cn1)c1ccccc1 [Example 35, Methyl-phenyl-carbamic acid 5-(3-tert-butyl-ureido)-pyridin-2-yl ester]	8
CC1CCN(Cc2ccc(C(=O)Nc3ccc(OC(=O)N(C)c4ccccc4)nc3)cc2)CC1 [Example 41, Methyl-phenyl-carbamic acid 5-[4-(4-methyl-piperidin-1-ylmethyl)-benzoylamino]-pyridin-2-yl ester]	3
CC1CCCCN1Cc1ccc(C(=O)Nc2ccc(OC(=O)N(C)c3ccccc3)nc2)cc1 (stereo not drawn) [Example 43, Methyl-phenyl-carbamic acid 5-[4-(2-methyl-piperidin-1-ylmethyl)-benzoylamino]-pyridin-2-yl ester]	7
CN(C(=O)Oc1ccc(NC(=O)c2ccc(CN3CCCC3)cc2)cn1)c1ccccc1 [Example 47, Methyl-phenyl-carbamic acid 5-(4-pyrrolidin-1-ylmethyl-benzoylamino)-pyridin-2-yl ester]	7
C[C@@H]1CN(Cc2ccc(C(=O)Nc3ccc(OC(=O)N(C)c4ccccc4)nc3)cc2)C[C@H](C)O1 [Example 52, cis-Methyl-phenyl-carbamic acid 5-[4-(2,6-dimethyl-morpholin-4-ylmethyl)-benzoylamino]-pyridin-2-yl ester]	4
CN(C(=O)Oc1ccc(NC(=O)c2ccc(-n3ccnc3)cc2)cn1)c1ccccc1 [Example 57, Methyl-phenyl-carbamic acid 5-(4-imidazol-1-yl-benzoylamino)-pyridin-2-yl ester]	17
CCN(CC)c1ccc(C(=O)Nc2ccc(OC(=O)N(C)c3ccccc3)nc2)cc1 [Example 58, Methyl-phenyl-carbamic acid 5-(4-diethylamino-benzoylamino)-pyridin-2-yl ester]	11
CC1CCN(C(=S)Nc2ccc(OC(=O)N(C)c3ccccc3)nc2)CC1 [Example 63, Methyl-phenyl-carbamic acid 5-[(4-methyl-piperidine-1-carbothioyl)-amino]-pyridin-2-yl ester]	2
CN(C(=O)Oc1ccc(N2C(=O)CC(C)(C)CC2=O)cn1)c1ccc(Br)cc1 [Example 65, (4-Bromo-phenyl)-methyl-carbamic acid 4,4-dimethyl-2,6-dioxo-3,4,5,6-tetrahydro-2H-[1,3′]bipyridinyl-6′-yl ester]	0
COc1ccc(N(C)C(=O)Oc2ccc(N3C(=O)CC(C)(C)CC3=O)cn2)cc1 [Example 72, (4-Methoxy-phenyl)-methyl-carbamic acid 4,4-dimethyl-2,6-dioxo-3,4,5,6-tetrahydro-2H-[1,3′]bipyridinyl-6′-yl ester]	2
CN(C(=O)Oc1ccc(N2C(=O)CC(C)(C)CC2=O)cn1)c1ccc(CCO)cc1 [Example 77, [4-(2-Hydroxy-ethyl)-phenyl]-methyl-carbamic acid 4,4-dimethyl-2,6-dioxo-3,4,5,6-tetrahydro-2H-[1,3′]bipyridinyl-6′-yl ester]	12
